Laboratory results published in patent publication US20250319015A1, “VACCINIUM MACROCARPON EXTRACT AND ANTI-AGEING COSMETIC EFFECTS THEREOF” (SOCIETE INDUSTRIELLE LIMOUSINE D'APPLICATION BIOLOGIQUE, priority 2021, published 2025).
Where two headings read alike, the source gives them in different places. Marks after values point to notes of the source that are not given here.

Columns and labels:
[1] = system: older human fibroblasts by successive replications; test: Gene expression by quantitative PCR on older human fibroblasts; assay type: cell-based; settings: 1 μM Retinol
Procedure: The procedure of the study is described below. The young and older human cells are seeded and incubated at 37° C. […] After several days, the cells are recovered and the total RNA extracted. The RNAs were reverse-transcribed and the complementary DNAs obtained were analyzed by the quantitative PCR technique. The mRNAs of internal reference controls were analyzed in parallel with the mRNAs of the markers involved in the barrier function of the epidermis, in the DEJ and in the dermal matrix. The incorporation of fluorescence is measured continuously using a thermal cycler. The RQ (relative quantification) analysis is performed using software.

[2] = system: healthy Caucasian female volunteers; test: Complexion radiance by visual scoring by experts, Caucasian volunteers; assay type: in vivo, human; settings: Retinol 0.075%
Procedure: The complexion radiance is evaluated by experts using the following parameters: radiance, […], olive color and eye fatigue.

aquaporin 3 = test: Aquaporin 3 synthesis in reconstructed epidermises (immunohistofluorescence); assay type: cell-based, human; settings: older reconstructed epidermises, 10 μM Retinol
Procedure: (§1) This study was carried out on normal and older reconstructed epidermises. The epidermal construction was evaluated using a Hematoxylin Eosin (HE) stain and the synthesis of the barrier function markers by immunohistofluorescence. The procedure of the study is described below. […] The epidermides are recovered, fixed, dehydrated, and enclosed in paraffin. Sections (4 μm) are then made using a microtome. […] Viewing is performed using a microscope coupled to an image analysis system. The thickness of the epidermises obtained was measured on the histological sections produced. The rate of the various synthesized markers is proportional to the intensity of green fluorescence present on the reconstructed epidermises. A quantitative analysis of the images was carried out using an image analysis script. The results are expressed in arbitrary units (AU).

[3] = system: healthy Caucasian female volunteers; settings: for Parameter a* (skin redness), change compared to placebo: Retinol 0.075%
Procedure: (§2) This study was carried out on 3 groups of 18 healthy, female volunteers, aged 45 to 66 years and presenting with crow's feet wrinkles. Each of the volunteers applied two of the three formulae to half the face twice-daily in a randomized manner for 42 days.

Ki-67 = Ki-67 synthesis in reconstructed epidermises (immunohistofluorescence); assay type: cell-based, human; settings: older reconstructed epidermises, 10 μM Retinol
Procedure: as §1

collagen I = test: Collagen I network by immunocytology on older human fibroblasts; assay type: cell-based; settings: 0.1 μM Retinol
Procedure: Immunocytological labeling of collagen I is carried out by fixing and permeabilization using primary antibody I and secondary antibody coupled to a fluorophore. A quantitative analysis was carried out by reading the fluorescence of the various conditions tested using a fluorometer. The intensity of the collagen I network is proportional to the intensity of green fluorescence present. The results are expressed in fluorescence value (AU).

[4] = system: healthy Caucasian female volunteers; settings: retinol 0.075%, 18 volunteers
Procedure: as §2

[5] = system: healthy Caucasian female volunteers; test: Quality of the dermal fibers by LC-OCT, Caucasian volunteers; assay type: in vivo, human; settings: Retinol 0.075%
Procedure: (§3) This study was carried out on 3 groups of 18 healthy female volunteers, aged 45 to 66 years and presenting with crow's feet wrinkles. Each of the volunteers applied two of the three study formulae to half the face twice-daily in a randomized manner for 42 days.
Acquisitions carried out by LC-OCT after 21 and 42 days of treatment at the cheeks allowed evaluation of the structure of the quality of the fibers.

loricrin = test: Loricrin synthesis in reconstructed epidermises (immunohistofluorescence); assay type: cell-based, human; settings: older reconstructed epidermises, 10 μM Retinol
Procedure: as §1

[6] = system: healthy Caucasian female volunteers; test: Structure of the dermal-epidermal junction by LC-OCT, Caucasian volunteers; assay type: in vivo, human; settings: Retinol 0.075%
Procedure: as §3
Acquisitions carried out by LC-OCT after 21 and 42 days of treatment at the cheeks allowed evaluation of the structure of the dermal-epidermal junction

[7] = system: healthy Caucasian female volunteers; test: Anti-wrinkle effect by light projection (crow's feet), Caucasian volunteers; assay type: in vivo, human; settings: Retinol 0.075%
Procedure: The anti-wrinkle effect is evaluated according to the roughness parameter Sa, evaluated on the crow's feet zone by light projection and on the negative volume, evaluated on the same zone.

- Appearance of skin redness, parameter a* (in words) ([3]; 0.075% of retinol, from 21 days of treatment): significantly increases parameter a*
- Parameter a* (skin redness), change compared to placebo ([3]; D 21): +5%
- Parameter a* (skin redness), change compared to placebo ([3]; D 42): +5%
SMILES: CC1=C(/C=C/C(C)=C/C=C/C(C)=C/CO)C(C)(C)CCC1 [Retinol, retinol]
- DCN: Efficacy of retinol/older control (%) [1]: +7%
- ELN: Efficacy of retinol/older control (%) [1]: +5%
- FBN1: Efficacy of retinol/older control (%) [1]: −1%
- HSPG2: Efficacy of retinol/older control (%) [1]: +3%
- IL1: Efficacy of retinol/older control (%) [1]: +151%
- LUM: Efficacy of retinol/older control (%) [1]: −3%
- MMP1: Efficacy of retinol/older control (%) [1]: −24%
- POSTN: Efficacy of retinol/older control (%) [1]: +24%
- TGFβ1: Efficacy of retinol/older control (%) [1]: +8%
- VEGFA: Efficacy of retinol/older control (%) [1]: +2%
- ACAN expression (qPCR) ([1]; young cells control=100): 10
- AQP3 expression (qPCR) ([1]; young cells control=100): 73
- BGN expression (qPCR) ([1]; young cells control=100): 78
- COL1A1 expression (qPCR) ([1]; young cells control=100): 79
- COL3A1 expression (qPCR) ([1]; young cells control=100): 72
- CXCL8 expression (qPCR) ([1]; young cells control=100): 803
- DCN expression (qPCR) ([1]; young cells control=100): 89
- ELN expression (qPCR) ([1]; young cells control=100): 63
- FBN1 expression (qPCR) ([1]; young cells control=100): 90
- HSPG2 expression (qPCR) ([1]; young cells control=100): 90
- IL1 expression (qPCR) ([1]; young cells control=100): 567
- LUM expression (qPCR) ([1]; young cells control=100): 87
- MMP1 expression (qPCR) ([1]; young cells control=100): 164
- POSTN expression (qPCR) ([1]; young cells control=100): 56
- TGFβ1 expression (qPCR) ([1]; young cells control=100): 103
- VEGFA expression (qPCR) ([1]; young cells control=100): 93
- Eye fatigue, change compared to placebo ([2]; D 21): −2%
- Olive color, change compared to placebo ([2]; D 21): −11%
- Pinkness, change compared to placebo ([2]; D 21): +14%
- Radiance, change compared to placebo ([2]; D 21): +6%
- Eye fatigue, change compared to placebo ([2]; J42): −10%
- Olive color, change compared to placebo ([2]; J42): −10%
- Pinkness, change compared to placebo ([2]; J42): +19%
- Radiance, change compared to placebo ([2]; J42): +11%
- Ability to restore aquaporin 3 synthesis (%) (aquaporin 3): +100%
- Aquaporin 3 synthesis (×10^4 AU) (aquaporin 3; 48 hours): 355** ×10^4 AU
- Ability to restore Ki-67 synthesis (%) (Ki-67): +71%
- Ki-67-positive cells (%) (Ki-67; 48 hours): 23%
- Synthesis of the collagen I network (×10^3 AU) (collagen I): 174 ×10^3 AU
- Incident rate of adverse effects [4]: 17%
- Subjects who demonstrated adverse effects likely caused by the study product ([4]; 42 days): three
- Fiber Quality, change compared to placebo ([5]; D 21): +3%
- Fiber Quality, change compared to placebo ([5]; D 21, listed as retinol): +3%
- Fiber Quality, change compared to placebo ([5]; D 42): +12%
- Ability to restore loricrin synthesis (%) (loricrin): 0%
- Synthesis of loricrin (×10^4 AU) (loricrin; 48 hours): 177 ×10^4 AU
- Sinuosity of the DEJ, change compared to placebo ([6]; D 21): +2%
- Sinuosity of the DEJ, change compared to placebo ([6]; D 21, listed as retinol): +2%
- Sinuosity of the DEJ, change compared to placebo ([6]; D 42): +3%
- Sinuosity of the DEJ, change compared to placebo ([6]; D 42, listed as retinol): +3%
- Negative Volume (crow's feet), change compared to placebo ([7]; D 21): −12%
- Parameter Sa (roughness, crow's feet), change compared to placebo ([7]; D 21): −5%
- Negative Volume (crow's feet), change compared to placebo ([7]; D 42): −20%
- Parameter Sa (roughness, crow's feet), change compared to placebo ([7]; D 42): −7%
- Negative Volume (crow's feet), change compared to placebo ([7]; D 42, listed as retinol): −20%
